The text below walks through data of US20120270851A1, “USE OF […] THE TREATMENT OR PREVENTION OF MALARIA” (SANOFI, priority 2009, published 2012).

pEC50, pIC50: −log10 of the molar value. Read-outs that look alike come from different tables or passages of the source.

Experiment [1] concerns P. vivax. As to conditions: read-out: EC50 (effective concentration 50); blood isolates of P. vivax from patients, north-west Thailand; FIG. 1. As for the experimental part: (§1) In Vitro Evaluation of the Efficacy of Ferroquine Versus Other Reference Antimalaria Agents, on Blood Isolates Infected with P. vivax
(§2) The test that follows is performed on 110 isolates of P. vivax, collected in the north-west of Thailand (Tak province) on consenting patients, infected with P. vivax and in the acute phase of the infection, who came for consultation at the Shoklo Malaria Research Unit (SMRU).
(§3) The samples are collected 5 hours after their arrival and placed in 5 ml heparinized tubes, at room temperature.
(§4) The platelets and leukocytes are removed from these isolates, by analogy with the method described in Kanlaya et al., Malaria Journal, 2009, 8:115.

In experiment [2] the test system is P. vivax. The following applies: FIG. 2. As for the experimental part:
as §1, §2, §3, §4
Russell, B. et al. 2008, Antimicrob. Agents Chemother. 52:1040-5.

For the substance ferroquine, the pEC50 in the experiment on P. vivax [1] was ~8.22. The pIC50 in the experiment on P. vivax [2] (read-out: IC50 (inhibitory concentration 50), mature trophozoite stage, mature trophozoite stage of P. vivax) was 7.68; with P. vivax [2] (read-out: IC50 (inhibitory concentration 50), ring stage, young immature trophozoites (ring stage) of P. vivax) it was 7.85.
